Laboratory results published in patent US20240059691A1 (KALVISTA PHARMACEUTICALS LIMITED, priority 2020, published 2024).

Assays:
Type in all cases: biochemical
Thrombin = Thrombin (Homo sapiens (Human), UniProt P00734); test: Determination of related protease inhibition: Thrombin (fluorogenic substrate at Km); conditions: 25° C.
Description: (§1) Determination of Related Protease Inhibition
(§2) In vitro inhibition of related proteases was determined using an ([…] assay based on standard literature methods (see e.g. Shori et al., Biochem. Pharmacol., 1992, 43, 1209; Bouckaert et al., European Journal of Medicinal Chemistry 110 (2016) 181). Human serine protease enzymes Plasma Kallikrein, KLK1, FXa, Plasmin, Thrombin and Trypsin were assayed for enzymatic activity using an appropriate fluorogenic substrate at Km concentration, FXIa at fixed substrate concentration of 100 μM, and various concentrations of the test compound. Protease activity was measured by monitoring the accumulation of liberated fluorescence from the substrate over […]. The linear rate of fluorescence increase per minute was expressed as percentage (%) activity. IC50 values were calculated as the concentration of inhibitor giving 50% inhibition of the uninhibited enzyme activity (100%).

KLK1 = KLK1 (Homo sapiens (Human), UniProt P06870); test: Determination of related protease inhibition: KLK1 (fluorogenic substrate at Km); conditions: 25° C.
Description: as §1, §2

FXa = FXa (Homo sapiens (Human), UniProt P00742); test: Determination of related protease inhibition: FXa (fluorogenic substrate at Km); conditions: 25° C.
Description: as §1, §2

Human Factor XIIa = Human Factor XIIa (Homo sapiens (Human), UniProt P00748); test: Determination of FXIIa inhibition (fluorogenic substrate H-DPro-Phe-Arg-AFC, IC50 assay); conditions: substrate H-DPro-Phe-Arg-AFC at Km, 25° C.; class scale A-G
Method in brief: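 Human FXIIa incubated at 25° C with fluorogenic substrate H-DPro-Phe-Arg-AFC at its Km concentration and varying compound concentrations. Fluorescence release monitored over 5 min at 25° C; linear rate expressed as % of uninhibited activity to derive IC50.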

Plasma Kallikrein = Plasma Kallikrein (Homo sapiens (Human), UniProt P03952); test: Determination of related protease inhibition: Plasma Kallikrein (fluorogenic substrate at Km); conditions: 25° C., read-out: IC50 (human PKal)
Method in brief: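 Human enzymes incubated with varied inhibitor concentrations and fluorogenic substrate at Km. Fluorescence release followed over 5 min at 25 °C; linear rate expressed as % activity, IC50 as inhibitor concentration giving 50% inhibition of uninhibited enzyme.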

Chain of Plasma Kallikrein (P03952 391-638): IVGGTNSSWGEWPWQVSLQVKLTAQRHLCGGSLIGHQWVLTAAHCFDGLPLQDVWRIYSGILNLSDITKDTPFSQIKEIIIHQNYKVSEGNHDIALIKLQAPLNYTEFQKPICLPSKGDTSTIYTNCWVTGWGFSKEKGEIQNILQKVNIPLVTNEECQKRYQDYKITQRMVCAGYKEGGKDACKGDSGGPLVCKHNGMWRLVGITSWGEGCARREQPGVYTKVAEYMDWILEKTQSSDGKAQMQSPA
Chain of Plasma Kallikrein (P03952 20-390 partner): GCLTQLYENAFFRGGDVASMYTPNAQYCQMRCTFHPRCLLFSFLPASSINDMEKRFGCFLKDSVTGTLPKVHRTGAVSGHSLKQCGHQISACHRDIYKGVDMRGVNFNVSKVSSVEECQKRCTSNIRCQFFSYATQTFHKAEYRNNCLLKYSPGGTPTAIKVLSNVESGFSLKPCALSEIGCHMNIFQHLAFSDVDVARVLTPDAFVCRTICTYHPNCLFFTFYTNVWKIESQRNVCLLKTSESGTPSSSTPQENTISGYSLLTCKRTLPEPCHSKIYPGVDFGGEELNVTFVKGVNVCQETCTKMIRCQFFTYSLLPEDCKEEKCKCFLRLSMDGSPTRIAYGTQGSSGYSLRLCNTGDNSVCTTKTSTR
Chain of KLK1 (P06870 25-262): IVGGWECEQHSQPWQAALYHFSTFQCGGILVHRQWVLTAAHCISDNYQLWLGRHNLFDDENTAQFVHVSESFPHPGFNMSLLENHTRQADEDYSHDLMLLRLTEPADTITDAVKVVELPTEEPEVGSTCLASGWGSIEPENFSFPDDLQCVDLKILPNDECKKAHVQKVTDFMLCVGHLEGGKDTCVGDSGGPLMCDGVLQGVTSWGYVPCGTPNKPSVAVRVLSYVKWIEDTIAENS
Chain of Human Factor XIIa (P00748 373-615): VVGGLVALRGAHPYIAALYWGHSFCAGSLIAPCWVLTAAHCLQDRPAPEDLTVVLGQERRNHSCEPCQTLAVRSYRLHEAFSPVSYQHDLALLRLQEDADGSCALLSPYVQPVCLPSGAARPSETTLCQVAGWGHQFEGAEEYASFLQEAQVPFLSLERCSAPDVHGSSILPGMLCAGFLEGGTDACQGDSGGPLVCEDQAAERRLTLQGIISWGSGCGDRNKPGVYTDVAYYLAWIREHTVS
Chain of FXa (P00742 235-488): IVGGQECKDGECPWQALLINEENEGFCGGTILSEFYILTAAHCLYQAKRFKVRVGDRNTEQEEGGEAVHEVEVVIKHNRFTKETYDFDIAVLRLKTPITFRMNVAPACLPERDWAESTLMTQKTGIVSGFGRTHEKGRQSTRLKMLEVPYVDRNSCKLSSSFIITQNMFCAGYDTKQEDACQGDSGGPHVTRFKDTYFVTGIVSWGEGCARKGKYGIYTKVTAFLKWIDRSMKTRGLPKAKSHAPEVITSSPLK
Chain of FXa (P00742 41-179 partner): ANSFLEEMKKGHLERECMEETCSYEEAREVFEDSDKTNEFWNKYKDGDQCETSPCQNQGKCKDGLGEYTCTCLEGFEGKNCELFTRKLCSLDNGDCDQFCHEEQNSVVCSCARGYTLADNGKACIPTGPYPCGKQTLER

| SMILES | IC50 (Thrombin) | IC50 (KLK1) | IC50 (FXa) | IC50 (Human Factor XIIa) | IC50 (Plasma Kallikrein) |
| --- | --- | --- | --- | --- | --- |
| CC(C)N1CC2(CN(Cc3ccc(CNc4cccc5c(N)nccc45)c(F)c3)C2)C1 [Example 1036, N5-(2-fluoro-4-((6-isopropyl-2,6-diazaspiro[3.3]heptan-2-yl)methyl)benzyl)isoquinoline-1,5-diamine] | > 40 µM | 10 to 40 µM | > 40 µM | 0.3 to 1 µM | 10 to 40 µM |
| Cc1cn2c(n1)CC(COc1cc(CNc3cccc4c(N)nccc34)ccn1)CC2 (centres unmarked) [Example 4319, N5-[[2-[(2-methyl-5,6,7,8-tetrahydroimidazo[1,2-a]pyridin-7-yl)methoxy]-4-pyridyl]methyl]isoquinoline-1,5-diamine] | > 40 µM | 3 to 10 µM | 10 to 40 µM | 0.1 to 0.3 µM | 3 to 10 µM |
| CN1CC(C2CN(c3cc(CNc4ccc5c(N)nccc5c4)ccn3)C2)C1 [Example 5435, N6-((2-(1′-methyl-[3,3′-biazetidin]-1-yl)pyridin-4-yl)methyl)isoquinoline-1,6-diamine] | 3 to 10 µM | 1 to 3 µM | 3 to 10 µM | 1 to 3 µM | 10 to 40 µM |
| CN1CC2CC1CC2COc1cc(CNc2ccc3c(N)nccc3c2)ccn1 (centres unmarked) [Example 4277, N6-((2-((2-methyl-2-azabicyclo[2.2.1]heptan-5-yl)methoxy)pyridin-4-yl)methyl)isoquinoline-1,6-diamine] | 1 to 3 µM | 1 to 3 µM | 0.3 to 1 µM | 0.1 to 0.3 µM | 3 to 10 µM |
| CN1CCC(CNc2ccc(CNc3cncc4[nH]ccc34)cn2)CC1 [Example 1213, N-((6-(((1-methylpiperidin-4-yl)methyl)amino)pyridin-3-yl)methyl)-1H-pyrrolo[2,3-c]pyridin-4-amine] | 10 to 40 µM | > 100 µM | > 40 µM | 3 to 10 µM | 10 to 40 µM |
| CN1CCC(CNc2ccc(CNc3ccc4cnccc4c3Cl)cn2)CC1 [Example 1209, 5-chloro-N-((6-(((1-methylpiperidin-4-yl)methyl)amino)pyridin-3-yl)methyl)isoquinolin-6-amine] | > 40 µM | > 40 µM | > 40 µM | 3 to 10 µM | > 40 µM |
| Cn1ccnc1CCOc1cc(CNc2ccc3c(N)nccc3c2)ccn1 [Example 4283, 6-N-({2-[2-(1-methylimidazol-2-yl)ethoxy]pyridin-4-yl}methyl)isoquinoline-1,6-diamine] | 1 to 3 µM | 0.3 to 1 µM | 3 to 10 µM | 1 to 3 µM | 3 to 10 µM |
| Nc1ncc(Cl)c2cc(NCc3ccc(CCN4CCOCC4)cc3F)ccc12 [Example 2215, 4-chloro-6-N-({2-fluoro-4-[2-(morpholin-4-yl)ethyl]phenyl}methyl)isoquinoline-1,6-diamine] | > 40 µM | 10 to 40 µM | > 40 µM | 10 to 40 µM | > 40 µM |
| Nc1nccc2c(NCc3cnc(N4CCn5c(nnc5C(F)(F)F)C4)cc3Cl)cccc12 [Example 1299, N5-((4-Chloro-6-(3-(trifluoromethyl)-5,6-dihydro-[1,2,4]triazolo[4,3-a]pyrazin-7(8H)-yl)pyridin-3-yl)methyl)isoquinoline-1,5-diamine] | – | 3 to 10 µM | > 40 µM | 0.01 to 0.1 µM | > 40 µM |
| CC(C)N1CCC(CN(CCCO)C(=O)c2cccc(CNc3cccc4c(N)nccc34)c2)CC1 [Example 4441, 3-{[(1-aminoisoquinolin-5-yl)amino]methyl}-N-(3-hydroxypropyl)-N-[(1-isopropylpiperidin-4-yl)methyl]benzamide] | > 40 µM | 1 to 3 µM | > 40 µM | 0.1 to 0.3 µM | 10 to 40 µM |
| Nc1nccc2c(NCc3ccc(N4CCn5c(nnc5C(F)(F)F)C4)cn3)cccc12 [Example 9001, N5-((5-(3-(trifluoromethyl)-5,6-dihydro-[1,2,4]triazolo[4,3-a]pyrazin-7(8H)-yl)pyridin-2-yl)methyl)isoquinoline-1,5-diamine] | – | 3 to 10 µM | > 40 µM | 0.1 to 0.3 µM | > 40 µM |
| CC(C)N1C[C@H]2C[C@@H]1CN2CCc1ccc(CNc2ccc3c(N)ncc(Cl)c3c2)c(F)c1 [Example 2214, 4-chloro-6-N-[(2-fluoro-4-{2-[(1R,4R)-5-isopropyl-2,5-diazabicyclo[2.2.1]heptan-2-yl]ethyl}phenyl)methyl]isoquinoline-1,6-diamine] | > 40 µM | 3 to 10 µM | > 40 µM | 0.3 to 1 µM | 10 to 40 µM |
| CC1CN(c2ccc(CNc3cccc4c(N)nccc34)cn2)Cc2nnc(C(F)(F)F)n21 (single isomer, unassigned) [Example 1296, (R*)-N5-((6-(5-methyl-3-(trifluoromethyl)-5,6-dihydro-[1,2,4]triazolo[4,3-a]pyrazin-7(8H)-yl)468yridine-3-yl)methyl)isoquinoline-1,5-diamine] | – | 3 to 10 µM | > 40 µM | 1 to 3 µM | 10 to 40 µM |
| Nc1nccc2c(NCc3ccc(N4CCn5c(nnc5C(F)(F)F)C4)nc3C(F)(F)F)cccc12 [Example 1298, N5-((2-(trifluoromethyl)-6-(3-(trifluoromethyl)-5,6-dihydro-[1,2,4]triazolo[4,3-a]pyrazin-7(8H)-yl)pyridin-3-yl)methyl)isoquinoline-1,5-diamine] | – | 10 to 40 µM | > 40 µM | 1 to 3 µM | > 40 µM |
| Cc1cc(N2CCn3c(nnc3C(F)(F)F)C2)nc(C)c1CNc1cccc2c(N)nccc12 [Example 9006, N5-((2,4-dimethyl-6-(3-(trifluoromethyl)-5,6-dihydro-[1,2,4]triazolo[4,3-a]pyrazin-7(8H)-yl)pyridin-3-yl)methyl)isoquinoline-1,5-diamine] | – | > 40 µM | > 40 µM | 0.1 to 0.3 µM | > 40 µM |
| CC1CN(c2ccc(CNc3cccc4c(N)nccc34)cn2)Cc2nnc(C(F)(F)F)n21 (single isomer, unassigned) [Example 1297, (S*)-N5-((6-(5-methyl-3-(trifluoromethyl)-5,6-dihydro-[1,2,4]triazolo[4,3-a]pyrazin-7(8H)-yl)pyridin-3-yl)methyl)isoquinoline-1,5-diamine] | – | 1 to 3 µM | > 40 µM | 1 to 3 µM | > 40 µM |
| Nc1nccc2c(NCc3ccc(N4CCn5c(nnc5C(F)(F)F)C4)cc3)cccc12 [Example 1300, N5-(4-(3-(trifluoromethyl)-5,6-dihydro-[1,2,4]triazolo[4,3-a]pyrazin-7(8H)-yl)benzyl)isoquinoline-1,5-diamine] | – | 3 to 10 µM | > 40 µM | 0.1 to 0.3 µM | > 40 µM |
| CC1c2nnc(C(F)(F)F)n2CCN1c1ccc(CNc2cccc3c(N)nccc23)cn1 (single isomer, unassigned) [Example 1295, (S*)-N5-((6-(8-methyl-3-(trifluoromethyl)-5,6-dihydro-[1,2,4]triazolo[4,3-a]pyrazin-7(8H)-yl)pyridin-3-yl)methyl)isoquinoline-1,5-diamine] | – | 3 to 10 µM | > 40 µM | 0.01 to 0.1 µM | 10 to 40 µM |
| CN1CCC(COc2cc(CNc3ccc4c(N)nccc4c3)cc(C(F)(F)F)n2)CC1 [Example 4265, N6-((2-((1-methylpiperidin-4-yl)methoxy)-6-(trifluoromethyl)pyridin-4-yl)methyl)isoquinoline-1,6-diamine] | 0.3 to 1 µM | 0.3 to 1 µM | 1 to 3 µM | 0.1 to 0.3 µM | – |
| Nc1nccc2c(NCc3cnc(N4CCn5c(nnc5C(F)(F)F)C4)cc3C(F)(F)F)cccc12 [Example 1301, N5-((4-(trifluoromethyl)-6-(3-(trifluoromethyl)-5,6-dihydro-[1,2,4]triazolo[4,3-a]pyrazin-7(8H)-yl)pyridin-3-yl)methyl)isoquinoline-1,5-diamine] | – | 3 to 10 µM | > 40 µM | 0.1 to 0.3 µM | > 40 µM |
| CC1c2nnc(C(F)(F)F)n2CCN1c1ccc(CNc2cccc3c(N)nccc23)cn1 (single isomer, unassigned) [Example 1294, (R*)-N5-((6-(8-methyl-3-(trifluoromethyl)-5,6-dihydro-[1,2,4]triazolo[4,3-a]pyrazin-7(8H)-yl)pyridin-3-yl)methyl)isoquinoline-1,5-diamine] | – | 3 to 10 µM | > 40 µM | 10 to 40 µM | > 40 µM |
| Cc1cc(CNc2cccc3c(N)nccc23)cnc1N1CCn2c(nnc2C(F)(F)F)C1 [Example 1302, N5-((5-methyl-6-(3-(trifluoromethyl)-5,6-dihydro-[1,2,4]triazolo[4,3-a]pyrazin-7(8H)-yl)pyridin-3-yl)methyl)isoquinoline-1,5-diamine] | – | 1 to 3 µM | > 40 µM | 10 to 40 µM | 10 to 40 µM |
